“Also recorded” adds a separate entry of the source. Where two headings read alike, the source gives them in different places.
Legend:
[1] = tested on: N, multiformis; conditions: cited from earlier work
[2] = tested on: Nitrosospira sp. strain AV; conditions: cited from earlier work
[3] = tested on: N. mobilis; conditions: cited from earlier work
[4] = tested on: N. europaea; conditions: cited from earlier work
[5] = target: T1, ammonia monooxygenase (Nitrosomonas europaea, UniProt Q04507+Q04508); conditions: cited from earlier work
T1 construct: endogenous in cells; host or cells: autotrophic ammonia oxidizing bacteria (AAOB), mixed and unspecified, e.g. in waste water
T1 sequence (Q04507 1-276): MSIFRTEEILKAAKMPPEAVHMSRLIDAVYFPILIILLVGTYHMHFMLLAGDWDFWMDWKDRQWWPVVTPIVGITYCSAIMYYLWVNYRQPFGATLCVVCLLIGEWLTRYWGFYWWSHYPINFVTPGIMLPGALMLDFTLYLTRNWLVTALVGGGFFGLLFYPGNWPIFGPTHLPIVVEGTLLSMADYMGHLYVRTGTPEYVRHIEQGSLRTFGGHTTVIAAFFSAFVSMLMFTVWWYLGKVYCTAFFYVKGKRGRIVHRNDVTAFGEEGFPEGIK
T1 sequence (Q04508 26-420): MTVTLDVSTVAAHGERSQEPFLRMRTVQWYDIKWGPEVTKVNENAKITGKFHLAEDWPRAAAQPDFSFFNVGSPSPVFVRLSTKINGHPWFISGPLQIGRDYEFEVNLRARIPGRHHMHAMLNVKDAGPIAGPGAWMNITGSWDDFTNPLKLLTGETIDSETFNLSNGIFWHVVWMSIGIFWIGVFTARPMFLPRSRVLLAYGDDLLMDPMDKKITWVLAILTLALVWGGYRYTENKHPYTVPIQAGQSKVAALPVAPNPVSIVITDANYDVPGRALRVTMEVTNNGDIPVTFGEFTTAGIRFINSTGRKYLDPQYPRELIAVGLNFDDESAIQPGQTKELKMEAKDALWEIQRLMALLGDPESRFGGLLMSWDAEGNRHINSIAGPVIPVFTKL

[6] = tested on: local brachial artery vasodilatation; test: Local brachial artery vasodilatation after bolus infusion (Rassaf et al.); type: in vivo, human; conditions: for relative effectiveness (intravenous NO : SNP : GSNO): ratio, intravenous NO = 1
Procedure: SNP has also been compared to intravenous NO, where intravenous NO, SNP, and S—NO-glutathione (GSNO) were shown by Rassaf et al. to have relative “maximally effective doses” administered as bolus infusions in local brachial artery vasodilatation of 6 μM, 34 nM, and 5 nM respectively. (Rassaf et al., Evidence for in vivo transport of bioactive nitric oxide in human plasma, J. Clin. Invest. 109:1241-1248 (2002).) This puts the relative effectiveness of intravenous NO, SNP, and GSNO at 1:176:1200. There were significant differences in the temporal course of vasodilatation induced through the above treatments. […] Thus GSNO is roughly 7 times more “effective” at getting “NO active species” to peripheral GC than is SNP. Presumably then, a dose of about 0.1 μM/kg/hr of GSNO would have a vasodilatation effect equivalent to 0.75 μM/kg/hr SNP. The basal nitrate excretion is about 1 μM/kg/hr. If we assume that the vasodilatory effects of 0.75 μ/kg/hr SNP are on the “same order” as the indigenous NO already produced, then the 0.1 μkg/hr GSNO represents an increase in “effective NO” of […] over basal levels.

[7] = tested on: local brachial artery vasodilatation; conditions: bolus infusion, cited from earlier work
[8] = tested on: Human Mast Cell Adhesion; conditions: cited from earlier work
[9] = tested on: NOS; conditions: chronic inhibition of NOS; cited from earlier work
[10] = tested on: NOS; conditions: chronic inhibition of NOS; cited from earlier work; remark: listed apart in the source
[11] = tested on: NOS; conditions: horse, cited from earlier work
[12] = tested on: NOS; conditions: in vivo; cited from earlier work
[13] = tested on: NO synthesis; conditions: in vivo; cited from earlier work
[14] = type 2 diabetics; cited from earlier work
[15] = hyperbaric O2; cited from earlier work
[16] = inhaled NO at 80 ppm in >90% O2 (16 μM/min=14 μM/kg/hr); cited from earlier work
[17] = target: T2, guanylyl cyclase (GC) (Homo sapiens, UniProt Q02153); conditions: read-out: apparent EC50 for guanylyl cyclase activation, cited from earlier work
T2 construct: Soluble Guanylyl Cyclase, in Intact Cerebellar Cells; host or cells: intact cerebellar cells (endogenous)
T2 sequence (Q02153 1-619): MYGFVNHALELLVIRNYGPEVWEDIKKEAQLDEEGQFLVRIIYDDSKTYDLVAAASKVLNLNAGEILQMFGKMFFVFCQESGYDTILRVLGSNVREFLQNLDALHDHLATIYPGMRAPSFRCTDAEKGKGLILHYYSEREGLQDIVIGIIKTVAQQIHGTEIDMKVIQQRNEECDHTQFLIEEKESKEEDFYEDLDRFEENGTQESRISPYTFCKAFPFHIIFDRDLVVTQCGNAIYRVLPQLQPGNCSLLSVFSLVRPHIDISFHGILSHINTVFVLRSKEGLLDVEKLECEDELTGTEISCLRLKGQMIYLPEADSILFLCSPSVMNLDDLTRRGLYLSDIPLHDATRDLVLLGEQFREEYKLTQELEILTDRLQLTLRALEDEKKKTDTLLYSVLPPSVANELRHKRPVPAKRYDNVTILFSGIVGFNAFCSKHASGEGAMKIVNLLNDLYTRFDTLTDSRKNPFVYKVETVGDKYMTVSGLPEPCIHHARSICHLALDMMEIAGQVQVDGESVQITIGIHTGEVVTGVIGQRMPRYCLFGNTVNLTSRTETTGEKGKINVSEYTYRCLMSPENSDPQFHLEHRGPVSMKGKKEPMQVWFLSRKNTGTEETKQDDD
T2 sequence (Q02108 1-690 partner): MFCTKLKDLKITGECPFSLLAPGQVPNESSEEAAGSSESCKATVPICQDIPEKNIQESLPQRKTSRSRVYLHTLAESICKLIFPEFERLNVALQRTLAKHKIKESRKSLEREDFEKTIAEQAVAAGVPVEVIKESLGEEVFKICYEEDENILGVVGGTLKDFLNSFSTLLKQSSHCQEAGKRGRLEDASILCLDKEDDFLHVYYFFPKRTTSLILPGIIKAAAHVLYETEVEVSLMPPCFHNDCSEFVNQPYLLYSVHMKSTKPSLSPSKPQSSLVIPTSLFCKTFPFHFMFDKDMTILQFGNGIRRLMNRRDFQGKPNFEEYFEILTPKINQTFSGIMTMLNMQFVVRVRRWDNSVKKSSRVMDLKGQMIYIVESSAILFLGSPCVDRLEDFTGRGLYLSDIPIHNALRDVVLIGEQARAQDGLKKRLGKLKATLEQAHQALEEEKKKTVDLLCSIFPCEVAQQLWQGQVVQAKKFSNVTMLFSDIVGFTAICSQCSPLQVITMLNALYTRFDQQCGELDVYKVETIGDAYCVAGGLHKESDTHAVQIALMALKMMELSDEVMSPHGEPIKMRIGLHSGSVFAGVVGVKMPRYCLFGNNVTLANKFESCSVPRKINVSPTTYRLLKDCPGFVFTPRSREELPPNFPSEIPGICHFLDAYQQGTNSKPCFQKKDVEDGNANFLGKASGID

[18] = compared with estrogen; cited from earlier work
[19] = tested on: AAOB; conditions: cited from earlier work
[20] = physiologic concentrations of CP; cited from earlier work
[21] = tested on: murine macrophage cells (RAW264); conditions: CP 2 μM/L in Krebs-Ringer-phosphate, absence of hemoglobin; cited from earlier work

In the case of CCCCCCCCCCC(C)c1ccc(S(=O)(=O)O)cc1 (centres unmarked) [4-(2-dodecyl)benzenesulfonic acid], the “50% inhibitory concentration (IC50)” value [1] is listed as 1 µg/mL (ppm), the “50% inhibitory concentration (IC50)” value [2] is listed as 1 µg/mL (ppm) and the “50% inhibitory concentration (IC50)” value [3] is listed as 3 µg/mL (ppm). For the same molecule, the “50% inhibitory concentration (IC50)” value [4] was 5 µg/mL (ppm).

For C=CCNC(N)=S [Allylthiourea], the “inhibition of ammonia monooxygenase” value [5] is given as “very effective at inhibiting ammonia monooxygenase”.

For N[C@@H](CCC(=O)N[C@@H](CSN=O)C(=O)NCC(=O)O)C(=O)O [GSNO, S-nitrosoglutathione], the “effectiveness at getting NO active species to peripheral GC relative to SNP” value ([6]; GSNO versus SNP) is listed as “roughly 7 times”, the “relative effectiveness (intravenous NO : SNP : GSNO)” value [6] is listed as 1200 and the “maximally effective dose, local brachial artery vasodilatation” value [7] is listed as 0.005 µM. For the same molecule, the mast cell adhesion [8] was “strongly down regulated”.

For COC(=O)[C@@H](N)CCCNC(=N)N[N+](=O)[O-] [L-NAME, N(G)-nitro-L-arginine methyl ester], the “fibrosis of heart and kidneys” value [9] is listed as “generalized fibrosis of the heart and kidneys”, the “total (pancreatic islet) NO production” value [10] is listed as “can increase NO levels at particular sites; also recorded: increases total pancreatic islet NO production” and the VCO2max ([11]; L-NAME group (control 62.5)) is listed as 61.0 L/min. For the same molecule, the “reduction of cardiac output” value ([11]; L-NAME group) was 12%.

In the case of NC(=NCCC[C@H](N)C(=O)O)N[N+](=O)[O-] [L-NNA, N-nitro-L arginine], the “wake-sleep differences in cerebral blood flow” value [12] is given as “abolishes wake-sleep differences in cerebral blood flow” and the “reduction in basal temperature following hypoxia” value [13] is given as “greatly diminished”.

In the case of N=C(N)NCCC[C@H](N)C(=O)O [L-arginine], the forearm blood flow [14] is listed as “increases forearm blood flow”, the insulin sensitivity [14] is listed as “increases insulin sensitivity” and the latency to seizure [15] is listed as “increase the latency to seizure”.

In the case of [N]=O [NO, nitric oxide], the “change in mean arterial pressure” value [16] is given as “no change in mean arterial pressure”, the “relative effectiveness (intravenous NO : SNP : GSNO)” value [6] is given as 1 and the “maximally effective dose, local brachial artery vasodilatation” value ([7]; intravenous) is given as 6 µM. The EC50 ([17]; rapid (˜100 ms) activation) was ~45 nM and the EC50 ([17]; slow (˜1 to 10 sec) activation) was ~20 nM.

For O=[N+]([O-])OCC(CO[N+](=O)[O-])O[N+](=O)[O-] [nitroglycerin], the “prevention of bone loss” value [18] is given as “as effective as estrogen to prevent bone loss”.

In the case of S-nitroso-N-acetylpenicilamine [SNAP], the latency to seizure [15] is listed as “significantly shortens”.

For linear alkylbenzene sulfonates [LAS], the “toxicity to AAOB” value [19] is given as “toxic to AAOB at ppm levels” and the “toxicity to AAOB” value ([19]; listed as linear alkyl benzene sulfonate detergents) is given as “killed by ppm levels”.

B1: CP: ceruloplasmin, the main Cu containing serum protein (protein, UniProt P00450 20-1065, looked up)
Ceruloplasmin: KEKHYYIGIIETTWDYASDHGEKKLISVDTEHSNIYLQNGPDRIGRLYKKALYLQYTDETFRTTIEKPVWLGFLGPIIKAETGDKVYVHLKNLASRPYTFHSHGITYYKEHEGAIYPDNTTDFQRADDKVYPGEQYTYMLLATEEQSPGEGDGNCVTRIYHSHIDAPKDIASGLIGPLIICKKDSLDKEKEKHIDREFVVMFSVVDENFSWYLEDNIKTYCSEPEKVDKDNEDFQESNRMYSVNGYTFGSLPGLSMCAEDRVKWYLFGMGNEVDVHAAFFHGQALTNKNYRIDTINLFPATLFDAYMVAQNPGEWMLSCQNLNHLKAGLQAFFQVQECNKSSSKDNIRGKHVRHYYIAAEEIIWNYAPSGIDIFTKENLTAPGSDSAVFFEQGTTRIGGSYKKLVYREYTDASFTNRKERGPEEEHLGILGPVIWAEVGDTIRVTFHNKGAYPLSIEPIGVRFNKNNEGTYYSPNYNPQSRSVPPSASHVAPTETFTYEWTVPKEVGPTNADPVCLAKMYYSAVEPTKDIFTGLIGPMKICKKGSLHANGRQKDVDKEFYLFPTVFDENESLLLEDNIRMFTTAPDQVDKEDEDFQESNKMHSMNGFMYGNQPGLTMCKGDSVVWYLFSAGNEADVHGIYFSGNTYLWRGERRDTANLFPQTSLTLHMWPDTEGTFNVECLTTDHYTGGMKQKYTVNQCRRQSEDSTFYLGERTYYIAAVEVEWDYSPQREWEKELHHLQEQNVSNAFLDKGEFYIGSKYKKVVYRQYTDSTFRVPVERKAEEEHLGILGPQLHADVGDKVKIIFKNMATRPYSIHAHGVQTESSTVTPTLPGETLTYVWKIPERSGAGTEDSACIPWAYYSTVDQVKDLYSGLIGPLIVCRRPYLKVFNPRRKLEFALLFLVFDENESWYLDDNIKTYSDHPEKVNKDDEEFIESNKMHAINGRMFGNLQGLTMHVGDEVNWYLMGMGNEIDLHTVHFHGHSFQYKHRGVYSSDVFDIFPGTYQTLEMFPRTPGIWLLHCHVTDHIHAGMETTYTVLQNEDTKSG
In the case of B1, the “increase in formation of GSNO from NO and GSH” value [20] is listed as “approximately 100 times” and the “conversion of authentic NO to RSNO (recovered NAC—NO)” value [21] is listed as ≤ 33%.

Source: US20070148136A1, “Methods of using ammonia oxidizing bacteria” (priority 2003, published 2007)
